Experimental data taken from patent US20080242729A1, “Rxr Antagonists in the Treatment of Inflammatory Diseases” (priority 2004, published 2008).

Columns and labels:
human skin [1] = assay: Clinical pilot trial: inflammation potential on healthy, non-inflamed human skin (epicutaneous); format: in vivo
Description: In a clinical pilot trial on one healthy volunteer compound A is applied epicutaneously in a concentration of 1% for its inflammation potential compared to that of the strong inflammation inducing agent 9-cis RA in concentrations of 0.1%, 0.3% and 1%.
The compounds are solved or suspended in ethanol/propylene glycol (1:1). They are applied epicutaneously twice daily, 7 days a week, for two consecutive weeks. The site of application is an area of 3×3=9 cm^2 on the abdominal skin. The volume is 0.1 ml per application.
The following signs and symptoms of skin inflammation are recorded: Erythema, desquamation (scaling), pruritus, burning, pain, exsudation, edema, ulceration. They are classified on a scale of:
Treatment period lasts from day 1 to 14, the post-treatment observation period from day 15 to day 28

[2] = test system: synovial fibroblasts / human cartilage; assay: In vitro cartilage degradation by synovial fibroblasts from a RA patient, release of sGAG; format: cell-based
Procedure: (§1) The effect of RXR antagonists on the activity of synovial fibroblasts, dependent on their state of activation, i.e. modified by a concomitant stimulation by the inflammatory cytokine Interleukin-1β (IL-1β), is determined. Furthermore, it is determined whether this is accompanied by a modulation in the accumulation of the mRNA encoding catabolic enzyme matrix metalloproteinase-1 (MMP-1), responsible for degradation of human cartilage and consequently joint destruction in man. Adherent synovial fluid cells taken from a patient with RA are used after 5 passages in an in vitro assay for cartilage destruction. The cells incubated in flasks coated with 0.1% (0.1 g/100 ml) human cartilage powder are fixed using Matrigel® (BD Biosciences, Becton, Dickinson & Co., Boston, Miss., USA). The release of sulphated glycosaminoglycan (sGAG) into the culture medium is monitored by a commercial calorimetric test according to a method described by S. Björnsson, see Anal. Biochem. 256, 229-237 (1998) using an alcian blue dot plot analysis, and the accumulation of mRNA encoding MMP-1 is quantified by real time PCR (TaqMan® (Roche Diagnostics, Basle, Switzerland)).
The retinoid agonists all-trans retinoic acid and 9-cis retinoic acid, both physiological metabolites of vitamin A, as well as the RXR antagonist compound A, diluted first in ethanol, and then diluted with vehicle or medium to the desired dose/concentration are tested in a time course (0-35 days for the in vitro assay, 0-48 hours for MMP-1 mRNA, see tables 7, 8 and 10) and dose-dependent (10^−7 to 10^−9 M, see tables 5, 6 and 9). This is conducted in the presence or absence of IL-1β (100 pg/ml).

MMP-1 mRNA = MMP-1 mRNA accumulation in synovial fibroblasts (real time PCR); format: cell-based, human
Procedure: as §1, with “Switzerland)). […] This is conducted in the presence or absence of IL-1β (100 pg/ml).” for “Switzerland)).”

normal skin of mice = assay: Effect on normal, non-inflamed skin of mice; format: in vivo, mice (C57BL/6); details: mouse ears
Procedure: The effect of the RXR antagonist compound A on normal skin of mice is investigated. The ears of C57BL/6 mice are treated epicutaneously (topically) for 4 consecutive days with compound A in a concentration of 0.05% and 2.5% in acetone/ethanol (1:1, v/v). Comparison with vehicle control. Daily observation of skin reactions, in particular inflammation, erythema, desquamation, and edema follows. Myeloperoxidase (MPO) activity is determined. The activity of MPO is considered the most sensitive criterium for the assessment of inflammation of the skin (see above, Examples 1 and 2).

human skin [3] = assay: Clinical phase I trial: skin inflammation induced by Candidin or UV-B irradiation in healthy volunteers; format: in vivo; details: Candidin intradermal or UV-B induced, topical treatment days 1-3, 4 volunteers; compound A 1% lotion, comparators as creams
Procedure: Four healthy volunteers participate. Inclusion criteria are: Age above 18 years, male or female. They are informed, with written letter of consent. Exclusion criteria are: Preexistant dermatological diseases, known allergy to test agents.
Inflammation inducing agents: Candidin is administered intradermally (see also D. Poffet, Comparaison entre le pouvoir vaso-constricteur d'un corticoide topique et l'inhibition de la dermite à la candidine après intradermoréaction (IDR). Thèse, Université de Genève, 1984). UV-B rays are administered by a UV-B lamp.
Inflammation is measured quantitatively. The area of the inflamed skin is measured in cm^2. The thickness of the skin is monitored by Ultrasound at 20 MHz. Erythema is measured by calorimetric determination employing a Minolta CR 20. […]
All determinations are recorded on a scale from 0 to 4: • 0=no reduction • 1=slight reduction (10 to 20%) • 2=moderate reduction (21 to 40%) • 3=marked reduction (41 to 70%) • 4=very marked reduction (71 to 100%) • Compared to vehicle control.

human skin [4] = assay: Clinical pilot trial: preventive and therapeutic effect on 9-cis RA induced human skin inflammation; format: in vivo; details: Therapy: 9-cis RA 0.3% day 1 to day 14, compound A 1% from day 15
Procedure: In this pilot clinical trial on one healthy volunteer, the substance 9-cis RA and compound A are administered epicutaneously. The inflammation-inducing agent 9-cis RA is used in a concentration of 0.3%. The RXR antagonist compound A is applied in a concentration of 1%. The compounds are solved in ethanol/propylene glycol (1:1) and administered twice daily. The site of application is the abdominal skin, with various areas of 3×3=9 cm^2. Volume per application is 0.1 ml.
The following three clinical settings at different sites are chosen:
1. Induction of Skin Inflammation by 9-cis RA • 9-cis RA is administered as a 0.3% solution twice daily from day 1 to day 14. The vehicle is administered from day 15 to disappearances of skin inflammation.
2. Prevention of 9-cis RA-Induced Skin Inflammation by RXR Antagonist Compound A • 9-cis RA solution of 0.3% is administered twice daily from day 1 to day 14, each time followed subsequently by application of compound A as a 1% solution.
3. Therapy of 9-Cis RA-Induced Skin Inflammation by RXR Antagonist Compound A • 9-cis RA solution of 0.3% is administered twice daily from day 1 to day 14. Compound A as a 1% solution is administered from day 15 until disappearance of skin inflammation.
The signs and symptoms of skin inflammation are recorded on a 0-4 scale, as described in example 16. […]

`CC1=C(/C=C/C(C)=C\C=C\C(C)=C\C(=O)O)C(C)(C)CCC1` [9-cis RA, 9-cis retinoic acid] was tested, and the “time after discontinuation of treatment until inflammation decreases to 0” value (human skin [1]; 0.1% to 1.0%, depending on the concentration (days 18 to 22)) was 4 to 8 days, the “signs or symptoms of skin inflammation” value (human skin [1]; 0.1%, 0.3% and 1.0% epicutaneous twice daily, around the tenth and eleventh day) was “slight erythema, desquamation and pruritus” and the “signs or symptoms of skin inflammation” value (human skin [1]; 0.1%, 0.3% and 1.0% epicutaneous twice daily, first 9 days after start of treatment, one volunteer) was “no signs or symptoms of skin inflammation”. The “signs or symptoms of skin inflammation” value (human skin [1]; 0.1 and 0.3% epicutaneous twice daily, days 12, 13 and 14) was “moderate inflammation”, the “signs or symptoms of skin inflammation” value (human skin [1]; 1.0% epicutaneous twice daily, days 12, 13 and 14) was “marked inflammation” and the “sGAG in μg/ml (release of sGAG/14 days)” value ([2]; 10^−7 M, absence of IL-1β) was 189 µg/mL. The “sGAG in μg/ml (release of sGAG/14 days)” value ([2]; 10^−7 M, presence of 100 pg/ml IL-1β) was 221 µg/mL, the “sGAG in μg/ml (release of sGAG/14 days)” value ([2]; 10^−8 M, absence of IL-1β) was 107 µg/mL and the “Cumulative μg/ml sGAG/14 days” value ([2]; 10^−8 M, absence of IL-1β, day 7) was 44 µg/mL. For the same compound, the “Cumulative μg/ml sGAG/14 days” value ([2]; 10^−8 M, absence of IL-1β, day 14) was 107 µg/mL, the “Cumulative μg/ml sGAG/14 days” value ([2]; 10^−8 M, absence of IL-1β, day 21) was 206 µg/mL and the “Cumulative μg/ml sGAG/14 days” value ([2]; 10^−8 M, absence of IL-1β, day 28) was 253 µg/mL. The “Cumulative μg/ml sGAG/14 days” value ([2]; 10^−8 M, absence of IL-1β, day 35) was 292 µg/mL, the “sGAG in μg/ml (release of sGAG/14 days)” value ([2]; 10^−8 M, presence of 100 pg/ml IL-1β) was 189 µg/mL and the “Cumulative μg/ml sGAG/14 days” value ([2]; 10^−8 M, presence of 100 pg/ml IL-1β, day 7) was 68 µg/mL. For the same compound, the “Cumulative μg/ml sGAG/14 days” value ([2]; 10^−8 M, presence of 100 pg/ml IL-1β, day 14) was 189 µg/mL, the “Cumulative μg/ml sGAG/14 days” value ([2]; 10^−8 M, presence of 100 pg/ml IL-1β, day 21) was 330 µg/mL and the “Cumulative μg/ml sGAG/14 days” value ([2]; 10^−8 M, presence of 100 pg/ml IL-1β, day 28) was 407 µg/mL. The “Cumulative μg/ml sGAG/14 days” value ([2]; 10^−8 M, presence of 100 pg/ml IL-1β, day 35) was 441 µg/mL, the “sGAG in μg/ml (release of sGAG/14 days)” value ([2]; 10^−9 M, absence of IL-1β) was 64 µg/mL and the “sGAG in μg/ml (release of sGAG/14 days)” value ([2]; 10^−9 M, presence of 100 pg/ml IL-1β) was 204 µg/mL. For the same compound, the “MMP-1 mRNA in relative units (fold increase of baseline value)” value (MMP-1 mRNA; 10^−7 M, after 24 hours) was 2.60 relative units, the “MMP-1 mRNA in relative units (fold increase of baseline value)” value (MMP-1 mRNA; 10^−8 M, 0 hours) was 1 relative units and the “MMP-1 mRNA in relative units (fold increase of baseline value)” value (MMP-1 mRNA; 10^−8 M, 2 hours) was 0.98 relative units. The “MMP-1 mRNA in relative units (fold increase of baseline value)” value (MMP-1 mRNA; 10^−8 M, 6 hours) was 1.31 relative units, the “MMP-1 mRNA in relative units (fold increase of baseline value)” value (MMP-1 mRNA; 10^−8 M, 12 hours) was 3.39 relative units and the “MMP-1 mRNA in relative units (fold increase of baseline value)” value (MMP-1 mRNA; 10^−8 M, 24 hours) was 3.79 relative units. For the same compound, the “MMP-1 mRNA in relative units (fold increase of baseline value)” value (MMP-1 mRNA; 10^−8 M, 48 hours) was 1.47 relative units, the “MMP-1 mRNA in relative units (fold increase of baseline value)” value (MMP-1 mRNA; 10^−8 M, after 24 hours) was 3.39 relative units and the “MMP-1 mRNA in relative units (fold increase of baseline value)” value (MMP-1 mRNA; 10^−9 M, after 24 hours) was 1.54 relative units.
`CCCCOc1c(\C(C)=C/C=C/C(C)=C/C(=O)O)cc(C(C)(C)C)cc1C(C)(C)C` [compound A, (2E,4E,6Z)-7-[2-butoxy-3,5-bis(1,1-dimethylethyl)-phenyl]-3-methyl-2,4,6-octatrienoic acid] was tested, and the “MPO activity compared to the vehicle control, normal skin” value (normal skin of mice; compound A 0.05%, epicutaneous, 4 days) was “no significant change”, the “MPO activity in % of that of the vehicle control, normal skin” value (normal skin of mice; compound A 2.5%, epicutaneous, 4 days) was 57% and the “clinical signs or symptoms of a skin inflammation on normal skin” value (normal skin of mice; epicutaneous 0.05% and 2.5% in acetone/ethanol, 4 consecutive days) was “does not induce clinical signs or symptoms of a skin inflammation”. For the same compound, the “skin inflammation, objective or subjective symptoms” value (human skin [1]; 1% epicutaneous twice daily day 1-14, observation to day 28) was “no skin inflammation”, the “reduction of the inflammatory reaction compared to vehicle control (skin thickness, erythema, area of inflamed skin)” value (human skin [3]) was “very marked” and the “reduction of all parameters in comparison to the values of 9-cis RA” value (human skin [4]) was no less than 50%.
